Literature values, collected in patent publication US20130102943A1, “RELOADABLE FINISHES FOR TEXTILES AND FORMULATIONS FOR LOADING SUCH FINISHES” (SCHOELLER TEXTIL AG, priority 2009, published 2013).

Test system: gram-negative and gram-positive bacteria, as well as yeasts and molds

## CCCCCCCCCCCC(=O)N[C@@H](CCCNC(=N)N)C(=O)OCC.Cl [Lauroyl arginate, Ethyl-N-alpha-lauroyl-L-arginate HCl]
  antimicrobial effectiveness: effective
